Literature values in article PMC10784415 (Developmental dynamics : an official publication of the …, 2023).

Tested on: tooth buds
Conditions: animal studies; cited from earlier work

SMILES: COc1cc2nccc(Oc3ccc(NC(=O)Nc4cc(C)on4)c(Cl)c3)c2cc1OC [tivozanib]
- Effect on tooth buds: shallower or narrower tooth buds
